Test results from ChEMBL document CHEMBL3044672, “N9- and N7-(Chloromethyl Phenymethyl)Chloropurine Derivatives from , '-Dichloroxylenes: Synthesis and Anticancer Activity” (2005).

Legend:
Type in all cases: functional
[1] = system: OVCAR-8; assay: Cytotoxicity against Homo sapiens (human) OVCAR8 cells after 48 hr by sulforhodamine B assay; settings: OVCAR-8, 48 h
[2] = system: OVCAR-5; assay: Cytotoxicity against Homo sapiens (human) OVCAR5 cells after 48 hr by sulforhodamine B assay; settings: OVCAR-5, 48 h
[3] = system: UACC-257; assay: Cytotoxicity against Homo sapiens (human) UACC257 cells after 48 hr by sulforhodamine B assay; settings: UACC-257, 48 h
[4] = system: SK-MEL-28; assay: Cytotoxicity against Homo sapiens (human) SK-MEL-28 cells after 48 hr by sulforhodamine B assay; settings: SK-MEL-28, 48 h
[5] = system: M14; assay: Cytotoxicity against Homo sapiens (human) M14 cells after 48 hr by sulforhodamine B assay; settings: M14, 48 h
[6] = system: U-251; assay: Cytotoxicity against Homo sapiens (human) U251 cells after 48 hr by sulforhodamine B assay; settings: U-251, 48 h
[7] = system: SNB-75; assay: Cytotoxicity against Homo sapiens (human) SNB75 cells after 48 hr by sulforhodamine B assay; settings: SNB-75, 48 h
[8] = system: SNB-19; assay: Cytotoxicity against Homo sapiens (human) SNB19 cells after 48 hr by sulforhodamine B assay; settings: SNB-19, 48 h
[9] = system: MDA-MB-435; assay: Cytotoxicity against Homo sapiens (human) MDA-MB-435 cells after 48 hr by sulforhodamine B assay; settings: MDA-MB-435, 48 h
[10] = system: BT-549; assay: Cytotoxicity against Homo sapiens (human) BT549 cells after 48 hr by sulforhodamine B assay; settings: BT-549, 48 h
[11] = system: Hs-578T; assay: Cytotoxicity against Homo sapiens (human) Hs 578T cells after 48 hr by sulforhodamine B assay
[12] = Cytotoxicity against Homo sapiens (human) NCI-ADR-RES cells after 48 hr by sulforhodamine B assay
[13] = system: MCF7; assay: Cytotoxicity against Homo sapiens (human) MCF7 cells after 48 hr by sulforhodamine B assay; settings: MCF7, 48 h
[14] = system: SN12C; assay: Cytotoxicity against Homo sapiens (human) SN12C cells after 48 hr by sulforhodamine B assay
[15] = system: TK-10; assay: Cytotoxicity against Homo sapiens (human) TK10 cells after 48 hr by sulforhodamine B assay; settings: TK-10, 48 h
[16] = system: CAKI-1; assay: Cytotoxicity against Homo sapiens (human) Caki1 cells after 48 hr by sulforhodamine B assay; settings: CAKI-1, 48 h
[17] = system: SF-268; assay: Cytotoxicity against Homo sapiens (human) SF268 cells after 48 hr by sulforhodamine B assay; settings: SF-268, 48 h
[18] = system: HT-29; assay: Cytotoxicity against Homo sapiens (human) HT-29 cells after 48 hr by sulforhodamine B assay; settings: HT-29, 48 h
[19] = system: COLO 205; assay: Cytotoxicity against Homo sapiens (human) COLO205 cells after 48 hr by sulforhodamine B assay; settings: COLO 205, 48 h
[20] = system: NCI-H522; assay: Cytotoxicity against Homo sapiens (human) NCI-H522 cells after 48 hr by sulforhodamine B assay; settings: NCI-H522, 48 h
[21] = system: NCI-H460; assay: Cytotoxicity against Homo sapiens (human) NCI-H460 cells after 48 hr by sulforhodamine B assay; settings: NCI-H460, 48 h
[22] = system: NCI-H23; assay: Cytotoxicity against Homo sapiens (human) NCI-H23 cells after 48 hr by sulforhodamine B assay; settings: NCI-H23, 48 h
[23] = system: NCI-H226; assay: Cytotoxicity against Homo sapiens (human) NCI-H226 cells after 48 hr by sulforhodamine B assay; settings: NCI-H226, 48 h
[24] = system: K562; assay: Cytotoxicity against Homo sapiens (human) K562 cells after 48 hr by sulforhodamine B assay; settings: K562, 48 h
[25] = system: MCF7; assay: Cytotoxicity against Homo sapiens (human) MCF7 cells assessed as cell growth at 10^-4 M after 48 hr by Alamar blue assay; settings: MCF7, 48 h, read-out: Activity
[26] = system: NCI-H460; assay: Cytotoxicity against Homo sapiens (human) NCI-H460 cells assessed as cell growth at 10^-4 M after 48 hr by Alamar blue assay; settings: NCI-H460, 48 h, read-out: Activity
[27] = read-out: LC50 (the source's name)

ClCc1ccc(Cn2cnc3nc(Cl)nc(Cl)c32)cc1
GI50 [1]: 1.99 µM
LC50 (concentration killing 50% of cells) [1]: 8.31 µM
TGI [1]: 4.07 µM
GI50 [2]: 2.18 µM
TGI [2]: 4.26 µM
CC50 [2, 27]: 8.31 µM
GI50 [3]: 2.23 µM
LC50 (concentration killing 50% of cells) [3]: 34.7 µM
TGI [3]: 5.49 µM
GI50 [4]: 2.18 µM
LC50 (concentration killing 50% of cells) [4]: > 100 µM
TGI [4]: 5.12 µM
GI50 [5]: 1.44 µM
LC50 [5]: 6.91 µM
TGI [5]: 3.16 µM
GI50 [6]: 1.77 µM
LC50 (concentration killing 50% of cells) [6]: 5.75 µM
TGI [6]: 3.23 µM
GI50 [7]: 2.08 µM
TGI [7]: 3.98 µM
CC50 [7, 27]: 7.41 µM
GI50 [8]: 29.5 µM
LC50 [8]: > 100 µM
TGI [8]: > 100 µM
GI50 [9]: 1.62 µM
LC50 [9]: 5.75 µM
TGI [9]: 3.01 µM
GI50 [10]: 1.86 µM
LC50 (50% lethal concentration) [10]: 6.45 µM
TGI [10]: 3.46 µM
GI50 [11]: 19.1 µM
LC50 [11]: > 100 µM
TGI [11]: 44.7 µM
GI50 [12]: 2.08 µM
TGI [12]: 4.46 µM
GI50 [13]: 4.16 µM
LC50 (concentration killing 50% of cells) [13]: 83.2 µM
TGI [13]: 17 µM
GI50 [14]: 1.86 µM
LC50 (50% lethal concentration) [14]: 6.6 µM
TGI [14]: 3.46 µM
GI50 [15]: 0.12 µM
TGI [15]: 0.29 µM
CC50 [15, 27]: 0.72 µM
GI50 [16]: 1.44 µM
TGI [16]: 2.75 µM
CC50 [16, 27]: 5.37 µM
GI50 [17]: 1.99 µM
TGI [17]: 3.98 µM
CC50 [17, 27]: 7.94 µM
GI50 [18]: 3.54 µM
TGI [18]: > 100 µM
CC50 [18, 27]: > 100 µM
GI50 [19]: 17.4 µM
TGI [19]: > 100 µM
CC50 [19, 27]: > 100 µM
GI50 [20]: 1.77 µM
TGI [20]: 4.57 µM
CC50 [20, 27]: 38 µM
GI50 [21]: 15.5 µM
TGI [21]: 35.5 µM
CC50 [21, 27]: 79.4 µM
GI50 [22]: 2.34 µM
TGI [22]: 4.57 µM
CC50 [22, 27]: 8.91 µM
GI50 [23]: 1.23 µM
TGI [23]: 3.89 µM
CC50 [23, 27]: 15.5 µM
GI50 [24]: 3.31 µM
TGI [24]: > 100 µM
CC50 [24, 27]: > 100 µM
growth at 100 µM [25]: 1%
growth at 100 µM [26]: 0%
